Laboratory results: patent US11465998B2, “Therapeutic compounds and methods of use thereof” (Regents of the University of Minnesota, priority 2019, dated 2022)
“Also recorded” adds a separate entry of the source. Read-outs that look alike come from different tables or passages of the source.

Target: T1, human NOD2 (Homo sapiens, UniProt Q9HC29)
T1 construct: host or cells: HEK293
Experiment: human NOD2 specific reporter gene assay (NF-κB induction)
Format: cell-based
Procedure: Example 5: High-throughput screens in porcine blood: Curated compound collections were obtained from the Institute for Therapeutics Discovery & Development at the University of Minnesota. Compound transfers from source (80 nL of 10 mM stocks) to assay plates were performed using an Echo 550 acoustic liquid handler (Labcyte, Sunnyvale, Calif.). For most libraries, a target final concentration of 10 μM of compound (in a final volume of 80 μL for the assay described below) was achieved. Compound plates were hermetically sealed and stored at −80° C. until used. Fresh, heparin-anticoagulated porcine blood from healthy animals were obtained under USDA supervision from Midwest Research Swine, LLC (Glencoe, Minn.). 80 μL of hematocrit-enriched porcine blood (low-speed centrifugation, followed by resuspension in DMEM supplemented with 10% fetal bovine serum) was added to compound plates and incubated for 15 h. The following day, the plates were briefly centrifuged (100 g, 10 min), and supernatants were transferred using an automated ViaFlow 384 transfer device (Integra Biosciences Corp., Hudson, N.H.) to assay plates containing of 10^6 cells/mL of each of the following NF-κB/secreted alkaline phosphatase reporter cells suspended in HEK-Blue Detection Media: human IFN-α/β, human IFN-γ, human TNF-α/IL-1β (InvivoGen, San Diego, Calif.). NF-κB translocation was assayed spectrophotometrically using an alkaline phosphatase-specific chromogen (present in HEK-detection medium as supplied by InvivoGen) at 620 nm using a SpectraMax M4 multimode microplate reader (Molecular Devices, Sunnyvale, Calif.). Z′ factors were computed for each TLR/NOD-specific signals. Hits were defined as signals >4σ (in-plate standard deviations for test compounds above negative control means), were deconvoluted in full dose-response assays in human TLR-2/-3/-4/-5/-7/-8/-9 and NOD-1/NOD-2-specific reporter cells in liquid handler-assisted assay formats as described previously. Example 6: Murine knockout cell-lines: The following reagents were obtained through BEI Resources, NIAID, NIH: the microglial cell line derived from MAL/MyD88 double knockout Mice (NR-9904), and the macrophage cell line derived from TRIF/TRAM knockout mice (NR-9568). Example 7: Human NOD1/2-specific reporter gene assays (NF-κB induction), and TLR-2/-3/-4/-5/-7/-8/-9/STING/ISG counter-screens: The induction of NF-κB was quantified using human TLR-2/-3/-4/-5/-7/-8/-9/NOD-1/NOD-2/STING/ISG-specific, rapid-throughput, liquid handler-assisted reporter gene assays as previously described by us (Wu, W. et al. J. Med. Chem. 2010, 53, 3198-3213; Shukla, N. M. et al. J. Med. Chem. 2010, 53, 4450-4465; Agnihotri, G. et al. J. Med. Chem. 2011, 54, 1490-1510 and Ukani, R. et al. Bioorg. Med. Chem. Lett. 2012, 22, 293-295). HEK293 cells stably co-transfected with the appropriate hTLR and secreted alkaline phosphatase (sAP) were maintained in HEK-Blue™ Selection medium. Stable expression of secreted alkaline phosphatase (sAP) under control of NF-κB/AP-1/IRF promoters is inducible by appropriate innate immune stimuli, and extracellular sAP in the supernatant is proportional to NF-κB/IRF induction. Reporter cells were incubated at a density of ˜10^5 cells/ml in a volume of 80 μl/well, in 384-well, flat-bottomed, cell culture-treated microtiter plates in the presence of graded concentrations of stimuli. sAP was assayed spectrophotometrically using an alkaline phosphatase-specific chromogen (present in HEK-detection medium as supplied by InvivoGen) at 620 nm. Example 8: Multiplexed immunoassays for human cytokines: Fresh human peripheral blood mononuclear cells (hPBMC) were isolated from human blood obtained by venipuncture in Cell Preparation Tubes (CPT, Beckton-Dickinson) with informed consent and as per guidelines approved by the University of Minnesota Human Subjects Experimentation Committee. Aliquots of PBMCs or THP-1 cells (10^5 cells in 100 μL/well) were stimulated for 16 h with graded concentrations of test compounds. […]

[1] = human NOD2 specific reporter gene assay, arithmetic mean of quadruplicate samples, NA* indicates inactive under the tested conditions, read-out: hNOD2 Agonistic Activity (μM), EC50

T1 sequence (Q9HC29 whole entry): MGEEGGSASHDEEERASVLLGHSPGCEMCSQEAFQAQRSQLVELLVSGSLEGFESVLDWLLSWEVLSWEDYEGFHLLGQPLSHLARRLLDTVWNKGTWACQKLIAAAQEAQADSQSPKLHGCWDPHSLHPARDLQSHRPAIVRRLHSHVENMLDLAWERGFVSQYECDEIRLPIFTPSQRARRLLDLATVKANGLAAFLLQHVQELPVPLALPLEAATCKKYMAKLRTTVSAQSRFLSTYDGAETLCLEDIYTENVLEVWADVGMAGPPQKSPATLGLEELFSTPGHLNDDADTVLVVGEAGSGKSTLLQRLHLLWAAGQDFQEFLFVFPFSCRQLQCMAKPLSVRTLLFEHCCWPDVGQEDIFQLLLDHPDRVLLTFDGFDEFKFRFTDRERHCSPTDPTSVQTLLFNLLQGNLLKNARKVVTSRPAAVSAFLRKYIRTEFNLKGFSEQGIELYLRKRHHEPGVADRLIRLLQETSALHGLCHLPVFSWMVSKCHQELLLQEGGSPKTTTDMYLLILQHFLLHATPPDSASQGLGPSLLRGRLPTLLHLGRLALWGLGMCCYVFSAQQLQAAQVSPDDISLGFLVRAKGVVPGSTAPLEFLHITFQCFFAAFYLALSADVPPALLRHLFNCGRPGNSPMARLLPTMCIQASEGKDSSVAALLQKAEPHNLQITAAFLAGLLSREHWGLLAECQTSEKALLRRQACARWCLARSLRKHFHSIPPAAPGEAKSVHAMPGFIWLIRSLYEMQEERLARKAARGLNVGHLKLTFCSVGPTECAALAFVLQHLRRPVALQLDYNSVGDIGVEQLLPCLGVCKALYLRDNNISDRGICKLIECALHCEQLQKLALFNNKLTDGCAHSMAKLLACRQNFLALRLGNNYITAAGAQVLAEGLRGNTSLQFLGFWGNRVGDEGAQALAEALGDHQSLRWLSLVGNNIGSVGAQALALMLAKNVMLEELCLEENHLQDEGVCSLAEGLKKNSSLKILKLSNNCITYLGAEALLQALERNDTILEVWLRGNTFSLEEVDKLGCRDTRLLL

| Compound | hNOD2-agonistic activity (in words) (human NOD2 reporter gene assay) | EC50 [1] | EC50 (human NOD2 reporter gene assay, read-out: EC50 values, human NOD2 agonistic potency) |
| --- | --- | --- | --- |
| NC(=O)c1cccc(-n2cnc3ccccc32)c1 [Compound 3k, 3-(1H-Benzo[d]imidazol-1-yl)benzamide] | devoid of activity | – | – |
| NCc1ccc(NC(=O)c2cc(-n3cnc4ccccc43)cs2)cc1 [Compound 2n, N-(4-(Aminomethyl)phenyl)-4-(1H-benzo[d]imidazol-1-yl)thiophene-2-carboxamide] | inactive | – | – |
| NC(=O)c1nc(-n2cnc3ccccc32)cs1 [Compound 3f, 4-(1H-Benzo[d]imidazol-1-yl)thiazole-2-carboxamide] | inactive; also recorded: devoid of activity | – | – |
| NC(=O)c1ccc(-n2cnc3ccccc32)cc1 [Compound 3j, 4-(1H-Benzo[d]imidazol-1-yl)benzamide] | devoid of activity | – | – |
| CNC(=O)c1cc(-n2cnc3ccccc32)cs1 [Compound 2d, 4-(1H-Benzo[d]imidazol-1-yl)-N-methylthiophene-2-carboxamide] | inactive | – | – |
| O=C(NCc1ccccc1)c1cc(-n2cnc3ccccc32)cs1 [Compound 2g, 4-(1H-Benzo[d]imidazol-1-yl)-N-benzylthiophene-2-carboxamide] | inactive | – | – |
| NC(=O)c1cc(-n2cnc3ccccc32)cs1 [Compound 2a, 4-(1H-Benzo[d]imidazol-1-yl)thiophene-2-carboxamide] | Weak hNOD2-agonistic activity | – | 7.26 µM |
| CCCCCc1nc2ccccc2n1-c1csc(C(N)=O)n1 [Compound 14, 4-(2-Pentyl-1H-benzo[d]imidazol-1-yl)thiazole-2-carboxamide] | weakly active | 7.39 µM | – |
| CCCCNC(=O)c1cc(-n2cnc3ccccc32)cs1 [Compound 2e, 4-(1H-Benzo[d]imidazol-1-yl)-N-butylthiophene-2-carboxamide] | inactive | – | – |
| NC(=O)c1sccc1-n1cnc2ccccc21 [Compound 3c, 3-(1H-Benzo[d]imidazol-1-yl)thiophene-2-carboxamide] | inactive | – | – |
| O=C(Nc1ccncc1)c1cc(-n2cnc3ccccc32)cs1 [Compound 2i, 4-(1H-Benzo[d]imidazol-1-yl)-N-(pyridin-4-yl)thiophene-2-carboxamide] | inactive | – | – |
| NC(=O)c1coc(-n2cnc3ccccc32)n1 [Compound 3e, 2-(1H-Benzo[d]imidazol-1-yl)oxazole-4-carboxamide] | devoid of activity | – | – |
| O=C(NNc1ccccc1)c1cc(-n2cnc3ccccc32)cs1 [Compound 2h, 4-(1H-Benzo[d]imidazol-1-yl)-N′-phenylthiophene-2-carbohydrazide] | inactive | – | – |
| CC(C)CCc1nc2ccccc2n1-c1csc(C(N)=O)c1 [Compound 7m, 4-(2-Isopentyl-1H-benzo[d]imidazol-1-yl)thiophene-2-carboxamide] | potencies very similar to the butyl analogue (7d) | 2.91 µM | – |
| NNC(=O)c1cc(-n2cnc3ccccc32)cs1 [Compound 2b, 4-(1H-Benzo[d]imidazol-1-yl)thiophene-2-carbohydrazide] | inactive | – | – |
| NC(=O)c1cnc(-n2cnc3ccccc32)s1 [Compound 3i, 2-(1H-Benzo[d]imidazol-1-yl)thiazole-5-carboxamide] | devoid of activity | – | – |
| NC(=O)c1cncc(-n2cnc3ccccc32)c1 [Compound 3l, 5-(1H-Benzo[d]imidazol-1-yl)nicotinamide] | devoid of activity | – | – |
| NC(=O)c1cscc1-n1cnc2ccccc21 [Compound 3b, 4-(1H-Benzo[d]imidazol-1-yl)thiophene-3-carboxamide] | inactive | – | – |
| O=C(Nc1ccccc1)c1cc(-n2cnc3ccccc32)cs1 [Compound 2f, 4-(1H-Benzo[d]imidazol-1-yl)-N-phenylthiophene-2-carboxamide] | inactive | – | – |

The remaining lines, values ahead:

| hNOD2-agonistic activity (in words) (human NOD2 reporter gene assay) | EC50 [1] | EC50 (human NOD2 reporter gene assay, read-out: EC50 values, human NOD2 agonistic potency) | Compound |
| --- | --- | --- | --- |
| inactive | – | – | CCCCCCCCCCCCCc1nc2ccccc2n1-c1csc(C(N)=O)c1 [Compound 7j, 4-(2-Tridecyl-1H-benzo[d]imidazol-1-yl)thiophene-2-carboxamide] |
| – | 2.2 µM | – | CCCCCCCCc1nc2ccccc2n1-c1csc(C(N)=O)c1 [Compound 7g, 4-(2-Octyl-1H-benzo[d]imidazol-1-yl)thiophene-2-carboxamide] |
| – | 2.07 µM | – | CCCCc1nc2ccccc2n1-c1csc(C(N)=O)c1 [Compound 7d, 4-(2-Butyl-1H-benzo[d]imidazol-1-yl)thiophene-2-carboxamide] |
| weakly active | 5.65 µM | – | CCCCc1nc2cnccc2n1-c1csc(C(N)=O)c1 [Compound 18b, 4-(2-Butyl-1H-imidazo[4,5-c]pyridin-1-yl)thiophene-2-carboxamide] |
| inactive | – | – | NC(=O)c1cc(-n2cnc3cnccc32)cs1 [Compound 18a, 4-(1H-Imidazo[4,5-c]pyridin-1-yl)thiophene-2-carboxamide] |
| lower potency than the hit compound | 8.26 µM | – | CCCc1nc2ccccc2n1-c1csc(C(N)=O)c1 [Compound 7c, 4-(2-Propyl-1H-benzo[d]imidazol-1-yl)thiophene-2-carboxamide] |
| inactive | – | – | NC(=O)c1cc(-n2cnc3c(N)nccc32)cs1 [Compound 19a, 4-(4-Amino-1H-imidazo[4,5-c]pyridin-1-yl)thiophene-2-carboxamide] |
| weak activity | 1.84 µM | – | CCCCCc1nc2ccccc2n1-c1csc(C(=O)NO)c1 [Compound 11b, N-Hydroxy-4-(2-pentyl-1H-benzo[d]imidazol-1-yl)thiophene-2-carboxamide] |
| inactive | – | – | N#Cc1cc(-n2cnc3ccccc32)cs1 [Compound 4a, 4-(1H-Benzo[d]imidazol-1-yl)thiophene-2-carbonitrile] |
| lower potency than the hit compound | 13.2 µM | – | CCc1nc2ccccc2n1-c1csc(C(N)=O)c1 [Compound 7b, 4-(2-Ethyl-1H-benzo[d]imidazol-1-yl)thiophene-2-carboxamide] |
| – | 5.81 µM | – | CCCCCCCCCCCc1nc2ccccc2n1-c1csc(C(N)=O)c1 [Compound 7i, 4-(2-Undecyl-1H-benzo[d]imidazol-1-yl)thiophene-2-carboxamide] |
| inactive | – | – | N=C(NO)c1cc(-n2cnc3ccccc32)cs1 [Compound 4b, 4-(1H-Benzo[d]imidazol-1-yl)-N-hydroxythiophene-2-carboximidamide] |
| – | 3.06 µM | – | CCCCCCCCCc1nc2ccccc2n1-c1csc(C(N)=O)c1 [Compound 7h, 4-(2-Nonyl-1H-benzo[d]imidazol-1-yl)thiophene-2-carboxamide] |
| weak activity | 7.02 µM | – | CCCCCc1nc2ccccc2n1-c1csc(C(=O)NC)c1 [Compound 11c, N-Methyl-4-(2-pentyl-1H-benzo[d]imidazol-1-yl)thiophene-2-carboxamide] |
| weak activity | 6.57 µM | – | CCCCCc1nc2ccccc2n1-c1csc(C(=N)N)c1 [Compound 13b, 4-(2-Pentyl-1H-benzo[d]imidazol-1-yl)thiophene-2-carboximidamide] |
